Assay [1] addresses T1, MRGPRX4 (Homo sapiens, UniProt Q96LA9). Briefly: Microscale thermophoresis binding assay, MRGPRX4. Also on record: expressed in transfected cells; whole cells or crude membrane fraction. The protocol:
(§1) Binding isotherms for MRGPRA1, MRGPRX4, and MRGRPC11 towards various ligands were determined by microscale thermophoresis with the NanoTemper monolith NT.115 instrument^27. Ligands were pre-incubated with 10 μM of the GFP-tagged receptor of interest for 5 minutes at room temperature in binding buffer (20 mM Tris and 150 mM NaCl at pH 8.8). Receptors were crudely purified as a membrane fraction from cells stably expressing the receptor^45. Haem metabolites were freshly dissolved in 0.1 M NaOH in dim light and then diluted into assay buffer. Lyophilized BAMS-22 was dissolved in binding buffer. The pH of each ligand was evaluated prior to incubation with a receptor. Samples were loaded into NT.115 Hydrophobic-Treated Capillaries from NanoTemper. Microscale thermophoretic experiments were executed using 20% LED power and 15% MST power. KDs were calculated using the law of mass action with data from three independent experiments. Binding between bilirubin and receptors was evaluated purely thermophoretically, whereas binding between BAMS-22 and MRGPRC11 was evaluated by T-Jump. Samples with dramatic deviations in initial fluorescence were excluded.

The target of assay [2] is T2, MrgprA1 (Mus musculus, UniProt Q91WW5).
T2 construct: expressed in transfected cells; whole cells or crude membrane fraction
T2 sequence (Q91WW5 1-304): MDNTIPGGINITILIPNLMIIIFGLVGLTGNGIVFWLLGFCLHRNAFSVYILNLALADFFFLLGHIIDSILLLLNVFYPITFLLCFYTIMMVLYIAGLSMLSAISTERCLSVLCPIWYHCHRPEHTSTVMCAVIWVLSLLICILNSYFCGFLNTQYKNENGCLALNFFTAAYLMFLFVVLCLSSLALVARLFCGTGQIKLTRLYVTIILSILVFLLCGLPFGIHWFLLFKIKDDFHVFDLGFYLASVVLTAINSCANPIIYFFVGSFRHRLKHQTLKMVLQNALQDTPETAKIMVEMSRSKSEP
Briefly: Fura 2-AM calcium imaging, EC50 and IC50 determinations, MRGPRA1 HEK293 cells. The format is cell-based. The note with it: HEK293 cells, Fura 2-AM; interval [96, 220]; read-out: EC50 calcium response MRGPRA1. The procedure:
(§2) Cells were imaged in calcium imaging buffer (CIB; 10 mM HEPES, 1.2 mM NaHCO3, 130 mM NaCl, 3 mM KCl, 2.5 mM CaCl2, 0.6 mM MgCl2, 20 mM glucose, and 20 mM sucrose at pH 7.4 and 290-300 mOsm). To monitor changes in intracellular [Ca^2+] ([Ca^2+]i), cells were loaded with either Fura 2-AM (HEK293 cells) or Fluo 4-AM (DRG neurons and mast cells) for 30 min in the dark at 37° C. in CIB just prior to imaging. With Fura 2-AM, emission at 510 nm was monitored from excitation at both 340 nm and 380 nm. With Fluo 4-AM, emission at 520 nm was monitored from excitation at 488 nm. Cells were identified as responding if the intracellular [Ca^2+] rose by either 50% compared to baseline or 50% compared to the [Ca^2+]i change assayed during addition of 50 mM KCl (neurons only). Damaged, detached, high-baseline, and motion-activated cells were excluded from analysis.
(§3) In initial screens, HEK293 cells stably expressing the murine G-protein alpha-subunit Gα15, a unique Gα protein that non-selectively couples a large variety of GPCRs to phospholipase C^30, were plated on poly-D-lysine-coated coverslips and transiently transfected with constructs encoding the MRGRPR of interest. 12-24 h later, cells were loaded with the Fura 2-AM. Unless otherwise specified, compounds were perfused into the imaging chamber for approximately thirty seconds after a baseline period was established. Response was then monitored at 5 s intervals for an additional 60 s.
HEK293 cells stably expressing either MRGPRA1, MRGPRX4, and MRGRPC11 were seeded in poly-D-lysine-coated 96-well plates at 10,000 cells/well. Cells were loaded with Fura 2-AM, washed twice, and maintained in CIB. Haem metabolites were freshly dissolved in DMSO in dim light and then diluted into a buffer comprised of 20 mM Tris and 150 mM NaCl at pH 8.8. Potential changes in pH were evaluated prior to each experiment. EC50 values were determined from dose-responses performed in triplicate, repeated 2-4 times. To determine potential antagonism by QWF against bilirubin, cells were treated with varying doses of QWF for 1 min in CIB prior to application of agonist.

Assay [3] addresses T2, MrgprA1. Briefly: Microscale thermophoresis binding assay, MRGPRA1. The procedure:
as §1
Background: Microscale thermophoresis detects binding through changes in fluorescence in a small temperature gradient.

The target of assay [4] is T1, MRGPRX4. Briefly: Fura 2-AM calcium imaging, EC50 determinations, MRGPRX4 HEK293 cells. Type of assay: cell-based. More on the design: expressed in transfected cells; whole cells or crude membrane fraction. The note with it: HEK293 cells, Fura 2-AM; interval [44, 87]; read-out: EC50 calcium response MRGPRX4. The protocol: as §2, §3
HEK293 cells stably expressing either MRGPRA1, MRGPRX4, and MRGRPC11 were seeded in poly-D-lysine-coated 96-well plates at 10,000 cells/well. Cells were loaded with Fura 2-AM, washed twice, and maintained in CIB. Haem metabolites were freshly dissolved in DMSO in dim light and then diluted into a buffer comprised of 20 mM Tris and 150 mM NaCl at pH 8.8. Potential changes in pH were evaluated prior to each experiment. EC50 values were determined from dose-responses performed in triplicate, repeated 2-4 times. […]

The next assay relates to mice. Briefly: Acute itch behaviour after injection (scratching bouts). Type of assay: in vivo, mouse. The following applies: bilirubin injection.
Assay [5] addresses T1, MRGPRX4. Briefly: FLIPR calcium assay (Flexstation3), HEK cells stably expressing MrgprX4. Type of assay: cell-based. Also on record: expressed in transfected cells; whole cells or crude membrane fraction. The following applies: FLIPR calcium dye, FIG. 18B. The procedure: (§4) EC50s were calculated using HEK cells stably expressing either MrgprA1 or MrgprX4. Cells were loaded with FLIPR calcium imaging dye, and a Flexstation3 machine (Molecular Devices) was used for reading changes in fluorescence. Wells were run in triplicate, and all values from each plate were normalized to the highest responding well. […] The x-axis depicts a modified logarithmic scale. […] FIG. 18B is a graph depicting the EC50 for MrgprX4 for bilirubin is approximately 3 μM.

In assay [6] the target is T2, MrgprA1. Briefly: FLIPR calcium assay (Flexstation3), HEK cells stably expressing MrgprA1. The note with it: HEK cells, FLIPR calcium dye, FIG. 18A. The format is cell-based. The procedure:
as §4

In a further assay the test system is DRG neurons. Briefly: Calcium imaging of dissociated DRG neurons. The format is cell-based, mouse. The following applies: Venn diagram FIG. 30A; Overlap=13.
In another assay the target is T3, MRGPRX3 (Homo sapiens, UniProt Q96LB0).
T3 construct: expressed in transfected cells; host or cells: HEK cells
Briefly: Ca2+ response of HEK cells expressing MRGPRX3. The format is cell-based.

The next assay concerns human keratinocytes. Briefly: Ca2+ response of primary human keratinocytes. The format is cell-based.
The next assay deals with T4, MrgprA6 (Mus musculus, UniProt Q91ZC6).
T4 construct: expressed in transfected cells; host or cells: HEK293 (transient, pcDNA3.1)
T4 sequence (Q91ZC6 1-301): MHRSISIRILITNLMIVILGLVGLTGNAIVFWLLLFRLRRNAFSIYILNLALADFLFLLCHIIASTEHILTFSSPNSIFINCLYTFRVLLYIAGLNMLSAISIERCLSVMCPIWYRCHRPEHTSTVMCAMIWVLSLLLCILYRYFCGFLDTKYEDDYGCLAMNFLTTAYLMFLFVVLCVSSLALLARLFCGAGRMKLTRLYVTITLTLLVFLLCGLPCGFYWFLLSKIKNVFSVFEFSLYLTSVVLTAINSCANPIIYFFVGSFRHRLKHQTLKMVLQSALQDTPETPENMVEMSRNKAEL
Briefly: Ca2+ response of cells expressing mouse MrgprA6. The format is cell-based.

The test system of assay [7] is MrgprA1, A4, A12, B3, and B6. Briefly: Ca2+ response of cells expressing other keratinocyte Mrgprs. The format is cell-based, mouse.
The target of assay [8] is T5, murine MRGPRA1 stably expressed in HEK293 cells (GFP-tagged, pEGFP-N1) (mouse, UniProt Q91WW5 1-304).
T5 sequence (looked up): T2 sequence (Q91WW5 1-304)
Briefly: cell-based or functional assay.

Where “and” joins values, the source holds several entries; their conditions need not be identical. Identical values can stand only once. Non-standard residues stand in square brackets, D forms with d. No end group written: not given here. *: point of attachment. Boc = CC(C)(C)OC(=O)*; OBn = c1ccc(CO*)cc1; For = O=C*

T1 sequence (Q96LA9 whole entry): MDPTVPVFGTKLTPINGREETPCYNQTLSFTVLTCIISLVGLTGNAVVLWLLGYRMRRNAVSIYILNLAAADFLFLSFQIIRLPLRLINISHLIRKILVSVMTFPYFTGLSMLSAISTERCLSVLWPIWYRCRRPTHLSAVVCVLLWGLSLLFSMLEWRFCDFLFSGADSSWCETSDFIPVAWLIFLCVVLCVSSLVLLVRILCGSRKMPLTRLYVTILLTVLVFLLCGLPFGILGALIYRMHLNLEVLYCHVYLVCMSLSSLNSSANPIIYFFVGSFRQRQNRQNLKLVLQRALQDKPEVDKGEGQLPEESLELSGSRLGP
T3 sequence (Q96LB0 whole entry): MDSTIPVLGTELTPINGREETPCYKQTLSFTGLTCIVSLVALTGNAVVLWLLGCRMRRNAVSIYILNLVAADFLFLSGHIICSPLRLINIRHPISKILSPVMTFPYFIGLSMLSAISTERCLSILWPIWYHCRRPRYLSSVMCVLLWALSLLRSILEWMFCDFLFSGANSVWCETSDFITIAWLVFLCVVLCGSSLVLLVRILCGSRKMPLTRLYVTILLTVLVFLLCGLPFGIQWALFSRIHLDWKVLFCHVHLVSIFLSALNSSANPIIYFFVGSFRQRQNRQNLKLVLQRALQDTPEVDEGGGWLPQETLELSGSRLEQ

In the case of `C=CC1=C(C)/C(=C/c2[nH]c(Cc3[nH]c(/C=C4\NC(=O)C(C)=C4C=C)c(C)c3CCC(=O)O)c(CCC(=O)O)c2C)NC1=O` [bilirubin, bilirubin IXa], the Kd at MRGPRX4 [1] turned out to be 54.4 ± 13 µM; at MrgprA1 [3], 92.9 ± 15 µM. Also, the EC50 on MrgprA1 [2] was 146 µM; at MRGPRX4 [4], 61.9 µM; at MRGPRX4 [5] it was ~3 µM and 2 µM; at MrgprA1 [6], roughly 49 µM. Further, the “scratching of Cluster−/− animals less than wild type” value in the assay on mice is recorded as “approximately 75%”. Besides, in the assay on DRG neurons, the “total neurons activated by the compound alone” value stood at 7.
For the molecule “hBD3: synthetic human Beta-defensin 3, antimicrobial peptide (GIINTLQKYYCRVRGGRCAVLSCLPKEEQIGKCSTRGRKCCRRKK; ends and bridges not checked; cysteine pairing not given here)”, in the assay with MRGPRX3, the “Ca2+ response of MRGPRX3 HEK cells” value was “robust Ca^2+ response”. Further, the “percentage of keratinocytes that responded” value in the assay with human keratinocytes (primary human keratinocytes after MRGPRX3 siRNA knock down) is less than 20%; in the assay on human keratinocytes (primary human keratinocytes, control), greater than 80%.
As to “mBD14: mouse Beta-Defensin-14, mouse homologue of hBD3 (FLPKTLRKFFCRIRGGRCAVLNCLGKEEQIGRCSNSGRKCCRKKK; ends and bridges not checked; cysteine pairing not given here)”, in the assay with MrgprA6, the “activation of MrgprA6” value is on record as “strongly activated”. Further, the “response of MrgprA1, A4, A12, B3, and B6” value in [7] is given as “did not show any response”.

B1: BOC-GLN-D-(FORMYL)TRP-PHE-BENZYLESTER (QWF) (peptide)
peptide: Boc-Gln-[dW](For)-Phe-OBn
As for B1, the “IC50 for inhibition of bilirubin-induced Ca^2+ signal in MRGPRA1-expressing HEK cells (200 µM bilirubin)” value in assay [8] was 2.9 µM.

By Kd is commonly meant the free concentration of one partner at which half of the binding sites on the other are occupied at equilibrium, for simple one-to-one binding. One may read the EC50 as the concentration at which the effect is half-maximal.

The record behind these values is patent US11442059B2, “Method for treating a chronic itch condition by administering small molecule MrgprX4 antagonists” (The Johns Hopkins University, priority 2017, dated 2022).
